The record followed here is PubChem BioAssay (NCI).

Common to all, as to experiment: growth of human tumour cells (NCI), 48 h
Assay [1] concerns OVCAR-5 ovarian.
The test system of assay [2] is DU-145 prostate.
The subject of assay [3] is HOP-92 NSCLC.
In assay [4] the test system is MCF7 breast.
Assay [5] deals with TK-10 renal.
The test system of assay [6] is EKVX NSCLC.
Assay [7] relates to U251 CNS.

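Protocol summary: plate cells (96-well), add compound at 5 concentrations, incubate 48 h, interpolate endpoints linearly. Abbreviation: GI50, concentration required for 50% inhibition of growth. TGI is the concentration that stops growth completely.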

Regarding `COc1cc(O)cc(O)c1C(=O)CC(Cl)(Cl)Cl`, the TGI in assay [1], in assay [2], in assay [3], in assay [4], in assay [5] and in assay [6] was greater than 100 µM throughout. Besides, the TGI in assay [7] is greater than 100 µM.

On to `S=C(N/N=C(\C(=N/NC(=S)N1CCCCC1)c1ccccn1)c1ccccn1)N1CCCCC1`, for which the TGI in assay [1], in assay [2], in assay [3], in assay [4], in assay [5] and in assay [6] was greater than 100 µM throughout. Besides, in assay [7], the TGI was greater than 100 µM.

On to `O=C1CC(C(COCc2ccccc2)OCc2ccccc2)CC(=O)N1` (stereo unspecified), for which the TGI in assay [1], in assay [2], in assay [3], in assay [4], in assay [5] and in assay [6] was greater than 100 µM throughout. This molecule registered a TGI in assay [7] greater than 100 µM.

On to `O=c1[nH]c(=O)n(COCc2ccccc2)c2ccccc12`, for which the TGI in assay [1], in assay [2], in assay [3], in assay [4], in assay [5] and in assay [6] was greater than 100 µM each time. In addition, the TGI in assay [7] is greater than 100 µM.

Turning to `Nc1ccccc1OCCCOc1ccccc1N`, the TGI in assay [1], in assay [2], in assay [3], in assay [4], in assay [5] and in assay [6] was greater than 100 µM each time. In addition, the TGI in assay [7] was greater than 100 µM.

For `O=C(NNS(=O)(=O)c1ccccc1)c1csc(NC(=S)NC2CCCCC2)n1`, the TGI in assay [1] was greater than 100 µM; in assay [2], 81.5 µM; in assay [3], greater than 100 µM; in assay [4], greater than 100 µM; in assay [5] it was greater than 100 µM; in assay [6], greater than 100 µM. This molecule had a TGI in assay [7] greater than 100 µM.

For the molecule `CC(=O)c1[nH]c(Nc2ccc(C)cc2)c(C(=S)Nc2ccccc2)c1N`, the TGI is greater than 100 µM in assay [1]; 34.2 µM in assay [2]; 35.9 µM in assay [3]; 30.6 µM in assay [4]; 35.5 µM in assay [5]; 96.7 µM in assay [6]. In addition, the TGI in assay [7] came out at 29.9 µM.

For the molecule `O=C1CCCCN1C(=O)c1ccc([N+](=O)[O-])cc1`, the TGI in assay [1], in assay [2], in assay [3], in assay [4], in assay [5] and in assay [6] was greater than 100 µM each time. In assay [7], this molecule came in with a TGI greater than 100 µM.

For the molecule `NCCS(=O)(=O)O`, the TGI in assay [1], in assay [2], in assay [3], in assay [4], in assay [5] and in assay [6] was greater than 100 µM in each case. In assay [7], this molecule had a TGI greater than 100 µM.

For `COC12C=CC(CC1)C(C)(C)C2OS(C)(=O)=O` (stereo unspecified), the TGI in assay [1], in assay [2], in assay [3], in assay [4], in assay [5] and in assay [6] was greater than 100 µM throughout. The molecule also returned a TGI in assay [7] greater than 100 µM.

For `O=C(/C=C/c1ccccc1)Oc1cccc(Br)c1`, the TGI was greater than 100 µM in assay [1]; greater than 100 µM in assay [2]; greater than 100 µM in assay [3]; 47.4 µM in assay [4]; greater than 100 µM in assay [5]; greater than 100 µM in assay [6]. Besides, the TGI in assay [7] was greater than 100 µM.

Regarding `CN1C=COC1N=C1CCCCC1` (stereo unspecified), the TGI in assay [1], in assay [2], in assay [3], in assay [4], in assay [5] and in assay [6] was greater than 100 µM in each case. In assay [7], this molecule yielded a TGI greater than 100 µM.

In the case of `C[C@@]12C[C@@H](c3ccccc3O1)N1Cc3ccccc3CSC1=N2`, the TGI in assay [1], in assay [2], in assay [3], in assay [4], in assay [5] and in assay [6] was greater than 100 µM in each case. In assay [7], this molecule came in with a TGI greater than 100 µM.

Turning to `COc1cc([C@@H]2c3cc4c(cc3[C@@H](c3c(O)cc(O)c5c3O[C@H](c3ccc(O)c(O)c3)[C@H](OC(=O)c3cc(O)c(O)c(O)c3)C5)[C@H]3COC(=O)[C@H]23)OCO4)cc(OC)c1O`, the TGI in assay [1], in assay [2], in assay [3], in assay [4], in assay [5] and in assay [6] was greater than 100 µM throughout. For the same molecule, the TGI in assay [7] is greater than 100 µM.

For `COc1cc(/C(=C2/O[C@@H]([C@H]3COC(C)(C)O3)[C@H]3OC(C)(C)O[C@@H]23)c2ccc3c(c2)OCO3)cc(OC)c1OC`, the GI50 was 4.85 µM in assay [1]; greater than 25 µM in assay [2]; greater than 25 µM in assay [3]; greater than 25 µM in assay [4]; greater than 25 µM in assay [5]; greater than 25 µM in assay [6]. The GI50 in assay [7] was greater than 25 µM. The TGI in assay [1], in assay [2], in assay [3], in assay [4], in assay [5] and in assay [6] was greater than 25 µM throughout. The same molecule displayed a TGI in assay [7] greater than 25 µM.

On to `CC1CCOc2ccc(cc2)C=Nc2ccc(cc2)-c2ccc(cc2)N=Cc2ccc(cc2)OCC1` (stereo unspecified), for which the TGI in assay [1], in assay [2], in assay [3], in assay [4], in assay [5] and in assay [6] was greater than 100 µM throughout. This molecule also came in with a TGI in assay [7] greater than 100 µM.

With `O=C1O[C@H]2C3C4CCC(C4[C@@H]2I)[C@H]13` (stereo partly specified), the TGI in assay [1], in assay [2], in assay [3], in assay [4], in assay [5] and in assay [6] was greater than 100 µM throughout. Moreover, the TGI in assay [7] is greater than 100 µM.
